The values below come from patent US8129371B2, “Thienopyrimidine and pyrazolopyrimidine compounds and their use as mTOR kinase and PI3 kinase inhibitors” (Wyeth LLC, priority 2007, dated 2012).

The subject of experiment [1] is breast line MDA468. The experiment is described as follows: In vitro cell culture growth assay (MTS), MDA468. It counts as cell-based. Conditions: Homo sapiens, 72 h, MDA468 cells, three days after drug treatment. Put shortly: (§1)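 Inhibitors were added one day after plating, and viable cells were measured 3 days later by MTS conversion (absorbance 490 nm).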
Experiment [2] addresses T1, PI3K (Homo sapiens, UniProt P48736).
T1 construct: PI3 Kinase γ IC50; other: PI3 Kinase γ; other: PI3 Kinase γ isoform, fluorescence polarization
The experiment in a line: Fluorescence polarization assay for PI3K. It counts as biochemical. Particulars: PI3 Kinase γ isoform, fluorescence polarization; read-out: PI3 Kinase γ IC50. An outline of the steps:
(§2)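 Fluorescence-polarization competition readout: after 30–60 min of PIP2/ATP turnover in 1% DMSO, a stop mix with GST-GRP (70 nM) and red probe (10 nM) was added.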
On the technique in general: In fluorescence polarisation assays a small probe gives low polarisation when free and higher when bound to something large.

Experiment [3] has as its target T2, PI3K (Homo sapiens, UniProt P42336).
T2 construct: PI3 Kinase α IC50; other: PI3 Kinase α; other: PI3 Kinase α isoform, fluorescence polarization
The experiment is described as follows: Fluorescence polarization assay for PI3K. The class given is biochemical. Particulars: PI3 Kinase α isoform, fluorescence polarization; read-out: PI3 Kinase α IC50. An outline of the steps: as §2

For experiment [4], the system named is prostate line LNCap. The experiment in a line: In vitro cell culture growth assay (MTS), LNCap. It counts as cell-based. Conditions: Homo sapiens, LNCaP, 72 h, LNCap cells, three days after drug treatment. An outline of the steps:
as §1

The target of experiment [5] is T3, Human mTOR (FLAG-TOR) (Homo sapiens, UniProt P42345).
T3 construct: FLAG
The experiment in a line: Human mTOR kinase assay with purified enzyme, DELFIA format. The class given is biochemical. Conditions: purified human mTOR enzyme, DELFIA format. An outline of the steps: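 DELFIA readout: Eu-anti-P(T389)-S6K antibody (40 ng/mL, 1 h) on captured His6-S6K from the stopped reaction. Kinase step used purified FLAG-tagged human mTOR with test compound in HEPES (pH 7.4)/MnCl2/DTT buffer, 2 h at room temperature (linear 1–6 h), terminated by EDTA/EGTA.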

Each structure is given as a SMILES string.

T2 sequence (P42336 whole entry, canonical isoform): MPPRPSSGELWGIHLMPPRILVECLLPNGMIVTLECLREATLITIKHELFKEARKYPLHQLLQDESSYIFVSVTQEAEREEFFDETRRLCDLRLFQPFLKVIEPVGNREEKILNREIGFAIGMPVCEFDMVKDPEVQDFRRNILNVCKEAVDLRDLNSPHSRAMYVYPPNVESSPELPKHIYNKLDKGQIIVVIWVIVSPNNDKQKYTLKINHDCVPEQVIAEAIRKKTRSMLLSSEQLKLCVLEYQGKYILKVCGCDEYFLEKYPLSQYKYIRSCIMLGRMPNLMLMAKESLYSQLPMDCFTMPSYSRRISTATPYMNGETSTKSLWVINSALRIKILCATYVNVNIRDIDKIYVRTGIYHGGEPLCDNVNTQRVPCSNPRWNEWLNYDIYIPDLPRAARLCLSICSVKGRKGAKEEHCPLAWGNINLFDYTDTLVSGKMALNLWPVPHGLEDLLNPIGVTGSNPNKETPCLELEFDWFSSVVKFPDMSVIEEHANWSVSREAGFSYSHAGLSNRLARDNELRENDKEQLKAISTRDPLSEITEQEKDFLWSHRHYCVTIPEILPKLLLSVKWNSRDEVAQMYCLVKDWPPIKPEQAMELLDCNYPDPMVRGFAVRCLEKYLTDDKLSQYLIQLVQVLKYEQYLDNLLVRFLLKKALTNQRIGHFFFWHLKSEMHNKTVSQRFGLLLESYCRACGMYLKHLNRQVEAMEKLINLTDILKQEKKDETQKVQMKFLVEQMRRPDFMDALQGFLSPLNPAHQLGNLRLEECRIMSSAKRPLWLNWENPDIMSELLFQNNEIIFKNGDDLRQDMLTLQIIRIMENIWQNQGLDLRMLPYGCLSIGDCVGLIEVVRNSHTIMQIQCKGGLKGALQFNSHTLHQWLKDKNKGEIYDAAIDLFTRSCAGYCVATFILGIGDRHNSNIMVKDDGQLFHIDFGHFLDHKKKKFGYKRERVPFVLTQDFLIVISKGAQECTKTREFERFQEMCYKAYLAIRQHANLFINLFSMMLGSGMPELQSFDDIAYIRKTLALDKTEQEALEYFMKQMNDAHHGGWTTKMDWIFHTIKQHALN
T1 sequence (P48736 whole entry, canonical isoform): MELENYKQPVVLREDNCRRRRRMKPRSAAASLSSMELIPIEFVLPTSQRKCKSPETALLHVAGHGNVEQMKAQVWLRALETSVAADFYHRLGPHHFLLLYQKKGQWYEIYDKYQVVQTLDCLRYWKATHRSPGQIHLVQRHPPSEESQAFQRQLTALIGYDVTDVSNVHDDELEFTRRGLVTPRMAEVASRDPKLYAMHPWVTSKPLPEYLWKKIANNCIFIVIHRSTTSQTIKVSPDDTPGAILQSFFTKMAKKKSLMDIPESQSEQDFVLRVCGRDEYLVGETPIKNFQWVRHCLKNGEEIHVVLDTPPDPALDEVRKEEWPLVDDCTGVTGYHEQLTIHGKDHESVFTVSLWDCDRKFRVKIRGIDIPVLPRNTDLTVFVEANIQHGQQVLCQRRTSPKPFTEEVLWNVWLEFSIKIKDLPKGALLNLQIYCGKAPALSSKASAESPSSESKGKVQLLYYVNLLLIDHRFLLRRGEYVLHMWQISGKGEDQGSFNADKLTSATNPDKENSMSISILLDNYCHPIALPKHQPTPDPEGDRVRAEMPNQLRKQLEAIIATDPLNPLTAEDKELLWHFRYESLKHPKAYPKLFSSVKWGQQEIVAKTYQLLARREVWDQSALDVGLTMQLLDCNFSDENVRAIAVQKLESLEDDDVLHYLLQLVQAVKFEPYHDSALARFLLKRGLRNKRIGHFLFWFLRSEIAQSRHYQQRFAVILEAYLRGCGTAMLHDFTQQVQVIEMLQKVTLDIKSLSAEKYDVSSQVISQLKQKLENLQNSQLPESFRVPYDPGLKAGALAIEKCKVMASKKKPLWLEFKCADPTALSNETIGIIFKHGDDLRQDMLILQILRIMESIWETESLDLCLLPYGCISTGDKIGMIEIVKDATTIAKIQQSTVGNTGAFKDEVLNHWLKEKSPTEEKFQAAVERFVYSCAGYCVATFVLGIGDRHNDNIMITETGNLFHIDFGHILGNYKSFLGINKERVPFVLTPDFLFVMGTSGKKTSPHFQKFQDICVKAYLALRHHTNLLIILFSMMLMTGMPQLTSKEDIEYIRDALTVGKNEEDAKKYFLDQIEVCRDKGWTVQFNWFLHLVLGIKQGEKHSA

Broadly, the IC50 is the point on the concentration scale where inhibition reaches its midpoint. Take `CNC(=O)Nc1ccc(-c2nc(N3CC4CCC(C3)O4)c3cnn(C4CCC(N5CCCC5)CC4)c3n2)cc1` (stereo not shown) [Example 331, 1-methyl-3-{4-[4-(8-oxa-3-azabicyclo[3.2.1]oct-3-yl)-1-(4-pyrrolidin-1-ylcyclohexyl)-1H-pyrazolo[3,4-d]pyrimidin-6-yl]phenyl}urea]: the IC50 came out at 1200 nM in experiment [1]; 5320 nM in experiment [2]; 606 nM in experiment [3]; 380 nM in experiment [4]; 8.05 nM in experiment [5].
Turning to `O=C(Nc1ccc(-c2nc(N3CC4CCC(C3)O4)c3cnn(C4CCC(N5CCCC5)CC4)c3n2)cc1)Nc1cccnc1` (stereo not shown) [Example 332, 1-{4-[4-(8-oxa-3-azabicyclo[3.2.1]oct-3-yl)-1-(4-pyrrolidin-1-ylcyclohexyl)-1H-pyrazolo[3,4-d]pyrimidin-6-yl]phenyl}-3-pyridin-3-ylurea], the IC50 is 900 nM in experiment [1]; 2760 nM in experiment [2]; 351 nM in experiment [3]; 370 nM in experiment [4]; 2.45 nM in experiment [5].
As to `CNC(=O)Nc1ccc(-c2nc(N3CC4CCC(C3)O4)c3cnn(C4CCC(NN(C)C)CC4)c3n2)cc1` (stereo not shown) [Example 333, 1-(4-{1-[4-(2,2-dimethylhydrazino)cyclohexyl]-4-(8-oxa-3-azabicyclo[3.2.1]oct-3-yl)-1H-pyrazolo[3,4-d]pyrimidin-6-yl}phenyl)-3-methylurea], the IC50 came to 380 nM in experiment [1]; 4590 nM in experiment [2]; 276 nM in experiment [3]; 68 nM in experiment [4]; 0.58 nM in experiment [5].
As for `CNC(=O)Nc1ccc(-c2nc(N3CC4CCC(C3)O4)c3cnn(C4CCC(NCCO)CC4)c3n2)cc1` (stereo not shown) [Example 334, 1-{4-[1-{4-[(2-hydroxyethyl)amino]cyclohexyl}-4-(8-oxa-3-azabicyclo[3.2.1]oct-3-yl)-1H-pyrazolo[3,4-d]pyrimidin-6-yl]phenyl}-3-methylurea], the IC50 in experiment [1] stood at 5200 nM; in experiment [2] it was 3940 nM; in experiment [3], 434 nM; in experiment [4], 2960 nM; in experiment [5] it was 4.5 nM.
Regarding `COCC(COC)n1ncc2c(N3CC4CCC(C3)O4)nc(-c3ccc(NC(=O)Nc4ccc(N5CCNCC5)cc4)cc3)nc21` [Example 335, 1-(4-{1-[2-methoxy-1-(methoxymethyl)ethyl]-4-(8-oxa-3-azabicyclo[3.2.1]oct-3-yl)-1H-pyrazolo[3,4-d]pyrimidin-6-yl}phenyl)-3-(4-piperazin-1-ylphenyl)urea], the 50% inhibitory concentration (IC50) in experiment [1] is 210 nM; in experiment [2] it was 4480 nM; in experiment [3] it was 273 nM; in experiment [4] it was 28 nM; in experiment [5], 2.35 nM.
`COCC(COC)n1ncc2c(N3CC4CCC(C3)O4)nc(-c3ccc(NC(=O)Nc4ccc(C(=O)NN(C)C)cc4)cc3)nc21` [Example 336, 1-{4-[(2,2-dimethylhydrazino)carbonyl]phenyl}-3-(4-{1-[2-methoxy-1-(methoxymethyl)ethyl]-4-(8-oxa-3-azabicyclo[3.2.1]oct-3-yl)-1H-pyrazolo[3,4-d]pyrimidin-6-yl}phenyl)urea]: the IC50 in experiment [1] is 4 nM; in experiment [2] it was greater than 10000 nM; in experiment [3] it was 666 nM; in experiment [4], less than 1 nM; in experiment [5], 2.75 nM.
Regarding `O=C(Nc1ccncc1)Nc1ccc(-c2nc(N3CC4CNCC(C3)O4)c3cnn(CC(F)(F)F)c3n2)cc1` [Example 337, 1-{4-[4-(9-oxa-3,7-diazabicyclo[3.3.1]non-3-yl)-1-(2,2,2-trifluoroethyl)-1H-pyrazolo[3,4-d]pyrimidin-6-yl]phenyl}-3-pyridin-4-ylurea], the IC50 in experiment [1] amounted to 1900 nM; in experiment [2], 7930 nM; in experiment [3], 1790 nM; in experiment [4], 2200 nM; in experiment [5] it was 31.5 nM.
On to `O=CN1CC2CN(c3nc(-c4ccc(NC(=O)Nc5ccncc5)cc4)nc4c3cnn4CC(F)(F)F)CC(C1)O2` [Example 338, 1-{4-[4-(7-formyl-9-oxa-3,7-diazabicyclo[3.3.1]non-3-yl)-1-(2,2,2-trifluoroethyl)-1H-pyrazolo[3,4-d]pyrimidin-6-yl]phenyl}-3-pyridin-4-ylurea], for which the IC50 was 1870 nM in experiment [1]; greater than 10000 nM in experiment [2]; 9500 nM in experiment [3]; 2950 nM in experiment [4]; 787 nM in experiment [5].
In the same order, the values of `CC(=O)N1CC2CN(c3nc(-c4ccc(NC(=O)Nc5ccncc5)cc4)nc4c3cnn4CC(F)(F)F)CC(C1)O2` [Example 339, 1-{4-[4-(7-acetyl-9-oxa-3,7-diazabicyclo[3.3.1]non-3-yl)-1-(2,2,2-trifluoroethyl)-1H-pyrazolo[3,4-d]pyrimidin-6-yl]phenyl}-3-pyridin-4-ylurea] are greater than 60000 nM, greater than 10000 nM, 9420 nM, greater than 60000 nM and greater than 6330 nM.
Take `CC(C)(C)OC(=O)N1CC2CN(c3nc(-c4ccc(NC(=O)Nc5ccncc5)cc4)nc4c3cnn4CC(F)(F)F)CC(C1)O2` [Example 340, tert-butyl 7-[6-{4-[(pyridin-4-ylcarbamoyl)amino]phenyl}-1-(2,2,2-trifluoroethyl)-1H-pyrazolo[3,4-d]pyrimidin-4-yl]-9-oxa-3,7-diazabicyclo[3.3.1]nonane-3-carboxylate]: the IC50 in experiment [1] was found to be 5200 nM; in experiment [2], 5760 nM; in experiment [3], 5080 nM; in experiment [4], 5200 nM; in experiment [5], 305 nM.
`CNC(=O)Nc1ccc(-c2nc(N3C[C@H]4C[C@@H]3CO4)c3cnn(CC(F)(F)F)c3n2)cc1` [Example 341, 1-methyl-3-(4-{4-[(1R,4R)-2-oxa-5-azabicyclo[2.2.1]hept-5-yl]-1-(2,2,2-trifluoroethyl)-1H-pyrazolo[3,4-d]pyrimidin-6-yl}phenyl)urea]: the half-maximal inhibitory concentration (IC50) in experiment [1] was 5000 nM; in experiment [2], greater than 10000 nM; in experiment [3] it was 4630 nM; in experiment [4], 2500 nM; in experiment [5] it was 91 nM.
As for `O=C(Nc1ccc(-c2nc(N3C[C@H]4C[C@@H]3CO4)c3cnn(CC(F)(F)F)c3n2)cc1)NC1CC1` [Example 342, 1-cyclopropyl-3-(4-{4-[(1R,4R)-2-oxa-5-azabicyclo[2.2.1]hept-5-yl]-1-(2,2,2-trifluoroethyl)-1H-pyrazolo[3,4-d]pyrimidin-6-yl}phenyl)urea], the IC50 in experiment [1] was 1000 nM; in experiment [2] it was greater than 10000 nM; in experiment [3] it was 9500 nM; in experiment [4], 670 nM; in experiment [5], 53 nM.
In the case of `O=C(Nc1ccc(-c2nc(N3C[C@H]4C[C@@H]3CO4)c3cnn(CC(F)(F)F)c3n2)cc1)OCCO` [Example 343, 2-hydroxyethyl (4-{4-[(1R,4R)-2-oxa-5-azabicyclo[2.2.1]hept-5-yl]-1-(2,2,2-trifluoroethyl)-1H-pyrazolo[3,4-d]pyrimidin-6-yl}phenyl)carbamate], the IC50 in experiment [1] is 1500 nM; in experiment [2], greater than 10000 nM; in experiment [3], 5170 nM; in experiment [4], 1200 nM; in experiment [5], 81 nM.
As to `O=C(Nc1ccc(-c2nc(N3C[C@H]4C[C@@H]3CO4)c3cnn(CC(F)(F)F)c3n2)cc1)Nc1cccnc1` [Example 344, 1-(4-{4-[(1R,4R)-2-oxa-5-azabicyclo[2.2.1]hept-5-yl]-1-(2,2,2-trifluoroethyl)-1H-pyrazolo[3,4-d]pyrimidin-6-yl}phenyl)-3-pyridin-3-ylurea], the IC50 in experiment [1] is 1000 nM; in experiment [2] it was greater than 10000 nM; in experiment [3], 1940 nM; in experiment [4], 660 nM; in experiment [5] it was 17 nM.
Take `CN1CCN(c2ccc(NC(=O)Nc3ccc(-c4nc(N5C[C@H]6C[C@@H]5CO6)c5cnn(CC(F)(F)F)c5n4)cc3)cc2)CC1` [Example 345, 1-[4-(4-methylpiperazin-1-yl)phenyl]-3-(4-{4-[(1R,4R)-2-oxa-5-azabicyclo[2.2.1]hept-5-yl]-1-(2,2,2-trifluoroethyl)-1H-pyrazolo[3,4-d]pyrimidin-6-yl}phenyl)urea]: the IC50 in experiment [1] was 450 nM; in experiment [2] it was greater than 10000 nM; in experiment [3], 1920 nM; in experiment [4] it was 190 nM; in experiment [5] it was 38.5 nM.
Turning to `CCn1nc(N2CCCC2)c2c(N3CC4CCC(C3)O4)nc(-c3ccc(NC(=O)Nc4cccnc4)cc3)nc21` [Example 346, 1-{4-[1-ethyl-4-(8-oxa-3-azabicyclo[3.2.1]oct-3-yl)-3-pyrrolidin-1-yl-1H-pyrazolo[3,4-d]pyrimidin-6-yl]phenyl}-3-pyridin-3-ylurea], the 50% inhibitory concentration (IC50) in experiment [1] stood at 950 nM; in experiment [2], 372 nM; in experiment [3] it was 448 nM; in experiment [4], 290 nM; in experiment [5] it was 10.9 nM.
For `CCn1nc(N2CCCC2)c2c(N3CC4CCC(C3)O4)nc(-c3ccc(NC(=O)NC)cc3)nc21` [Example 347, 1-{4-[1-ethyl-4-(8-oxa-3-azabicyclo[3.2.1]oct-3-yl)-3-pyrrolidin-1-yl-1H-pyrazolo[3,4-d]pyrimidin-6-yl]phenyl}-3-methylurea], the IC50 came to 1300 nM in experiment [1]; 7130 nM in experiment [2]; 1100 nM in experiment [3]; 310 nM in experiment [4]; 5.6 nM in experiment [5].
